The source of these data is ChEMBL document CHEMBL1681708, “The synthesis and structure-activity relationship of pyridazinones as glucan synthase inhibitors” (Bioorg Med Chem Lett, 2011).

Values after ≈ are worked out from the molar mass of the structure shown.

Data set [1] has as its system Nakaseomyces glabratus. In words: Antifungal activity against Candida glabrata C624 by broth dilution method. Format: functional. The following applies: read-out: MIC100. Background: Broth dilution looks for growth in wells or tubes with falling amounts of substance.
Data set [2] addresses T1, Beta-1,3-glucan synthase (Candida albicans, UniProt O13383).
T1 sequence (O13383 whole entry): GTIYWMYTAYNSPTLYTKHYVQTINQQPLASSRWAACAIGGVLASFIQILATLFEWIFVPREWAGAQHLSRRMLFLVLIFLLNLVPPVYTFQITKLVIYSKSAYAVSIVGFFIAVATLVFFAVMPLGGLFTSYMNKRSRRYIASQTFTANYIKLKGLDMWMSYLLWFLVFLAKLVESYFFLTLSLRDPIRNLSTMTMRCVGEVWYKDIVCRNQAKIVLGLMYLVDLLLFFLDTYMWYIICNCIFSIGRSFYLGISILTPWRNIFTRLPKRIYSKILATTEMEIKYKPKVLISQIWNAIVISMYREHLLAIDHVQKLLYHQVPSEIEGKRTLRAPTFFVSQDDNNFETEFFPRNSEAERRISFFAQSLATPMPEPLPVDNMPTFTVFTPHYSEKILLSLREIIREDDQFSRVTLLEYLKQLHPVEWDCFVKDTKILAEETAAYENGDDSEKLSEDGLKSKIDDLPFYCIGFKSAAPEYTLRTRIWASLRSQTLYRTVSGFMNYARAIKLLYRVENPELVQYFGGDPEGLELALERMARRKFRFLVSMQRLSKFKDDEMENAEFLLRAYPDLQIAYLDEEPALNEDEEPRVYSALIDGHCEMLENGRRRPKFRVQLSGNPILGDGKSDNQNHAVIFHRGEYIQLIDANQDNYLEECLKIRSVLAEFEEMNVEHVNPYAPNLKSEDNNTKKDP
The data set is described as follows: Inhibition of Candida albicans BWP17 1,3-beta-D-glucan synthase.

The subject of data set [3] is Candida albicans. In words: Antifungal activity against Candida albicans C693 by broth dilution method. Format: functional. The following applies: for MIC: read-out: MIC100.
Data set [4] can be described thus: AUC (0 to 6 hrs) in rat at 10 mg/kg, po administered with methylcellulose. Format: ADME, organism-based. More on the design: time < 6 hr, dose 10 mg/kg, route oral. The conditions noted are these: in vivo.
For data set [5], the system named is Aspergillus fumigatus. In words: Antifungal activity against Aspergillus fumigatus ND158 by broth dilution method. It counts as functional. The following applies: read-out: MEC.
The subject of data set [6] is Hepatocyte. The data set is described as follows: Clearance in human hepatocytes measured per molar mass of cells. Format: ADME, cell-based, Liver.
Data set [7] addresses Cytochrome P450 2C9 (Homo sapiens, UniProt P11712). In words: Inhibition of CYP2C9 at 30 uM. Format: ADME.
The test system of data set [8] is Candida glabrata. The data set is described as follows: Antifungal activity against Candida glabrata C624 infected in immunocompromized mouse assessed as log10 reduction in CFU in kidney at 10 mg/kg, poqd for seven days (reference value: 4.28 log10 CFU).
Data set [9] in a line: Clearance in dog hepatocytes measured per molar mass of cells. Format: ADME, cell-based, Canis lupus familiaris, Liver, Hepatocyte.
Data set [10] is described as follows: AUC (0 to 8 hrs) in dog at 2 mg/kg, po administered with methylcellulose and HPBCD. It counts as ADME, organism-based, Canis lupus familiaris. More on the design: time < 8 hr, dose 2 mg/kg, route oral. The following applies: in vivo.
The target of data set [11] is hERG (KCNH2) (Homo sapiens, UniProt Q12809). The data set is described as follows: Inhibition of human ERG at 1 uM by patch clamp assay. (The patch-clamp technique gives a direct electrical read-out from membranes.)
Data set [12] has as its target Cytochrome P450 3A4 (Homo sapiens, UniProt P08684). In words: Inhibition of CYP3A4 at 30 uM. Format: ADME.
For data set [13], the system named is Hepatocyte. The data set is described as follows: Clearance in rat hepatocytes measured per molar mass of cells. Format: ADME, cell-based, Liver.
For data set [14], the system named is Candida glabrata. In words: Antifungal activity against Candida glabrata C624 infected in immunocompromized mouse assessed as log10 reduction in CFU in kidney at 30 mg/kg, poqd for seven days (reference value: 4.28 log10 CFU).
The target of data set [15] is Cytochrome P450 2D6 (Homo sapiens, UniProt P10635). In words: Inhibition of CYP2D6 at 30 uM. Format: ADME.
Cytochrome P450 2D6, sequence (P10635 whole entry): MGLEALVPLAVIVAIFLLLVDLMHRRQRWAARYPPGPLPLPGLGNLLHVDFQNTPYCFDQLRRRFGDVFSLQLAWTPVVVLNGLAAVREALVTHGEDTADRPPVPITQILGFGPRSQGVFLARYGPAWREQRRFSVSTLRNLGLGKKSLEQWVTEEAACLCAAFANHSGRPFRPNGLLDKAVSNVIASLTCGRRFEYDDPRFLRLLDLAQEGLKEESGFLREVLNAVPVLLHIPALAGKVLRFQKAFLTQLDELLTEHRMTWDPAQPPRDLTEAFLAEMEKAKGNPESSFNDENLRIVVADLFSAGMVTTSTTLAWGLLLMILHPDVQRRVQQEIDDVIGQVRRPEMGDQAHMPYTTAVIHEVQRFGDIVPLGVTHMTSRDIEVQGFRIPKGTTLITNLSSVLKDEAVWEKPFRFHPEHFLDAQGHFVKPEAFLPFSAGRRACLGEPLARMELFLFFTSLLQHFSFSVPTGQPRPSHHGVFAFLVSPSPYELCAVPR

hERG (KCNH2), sequence (Q12809 whole entry): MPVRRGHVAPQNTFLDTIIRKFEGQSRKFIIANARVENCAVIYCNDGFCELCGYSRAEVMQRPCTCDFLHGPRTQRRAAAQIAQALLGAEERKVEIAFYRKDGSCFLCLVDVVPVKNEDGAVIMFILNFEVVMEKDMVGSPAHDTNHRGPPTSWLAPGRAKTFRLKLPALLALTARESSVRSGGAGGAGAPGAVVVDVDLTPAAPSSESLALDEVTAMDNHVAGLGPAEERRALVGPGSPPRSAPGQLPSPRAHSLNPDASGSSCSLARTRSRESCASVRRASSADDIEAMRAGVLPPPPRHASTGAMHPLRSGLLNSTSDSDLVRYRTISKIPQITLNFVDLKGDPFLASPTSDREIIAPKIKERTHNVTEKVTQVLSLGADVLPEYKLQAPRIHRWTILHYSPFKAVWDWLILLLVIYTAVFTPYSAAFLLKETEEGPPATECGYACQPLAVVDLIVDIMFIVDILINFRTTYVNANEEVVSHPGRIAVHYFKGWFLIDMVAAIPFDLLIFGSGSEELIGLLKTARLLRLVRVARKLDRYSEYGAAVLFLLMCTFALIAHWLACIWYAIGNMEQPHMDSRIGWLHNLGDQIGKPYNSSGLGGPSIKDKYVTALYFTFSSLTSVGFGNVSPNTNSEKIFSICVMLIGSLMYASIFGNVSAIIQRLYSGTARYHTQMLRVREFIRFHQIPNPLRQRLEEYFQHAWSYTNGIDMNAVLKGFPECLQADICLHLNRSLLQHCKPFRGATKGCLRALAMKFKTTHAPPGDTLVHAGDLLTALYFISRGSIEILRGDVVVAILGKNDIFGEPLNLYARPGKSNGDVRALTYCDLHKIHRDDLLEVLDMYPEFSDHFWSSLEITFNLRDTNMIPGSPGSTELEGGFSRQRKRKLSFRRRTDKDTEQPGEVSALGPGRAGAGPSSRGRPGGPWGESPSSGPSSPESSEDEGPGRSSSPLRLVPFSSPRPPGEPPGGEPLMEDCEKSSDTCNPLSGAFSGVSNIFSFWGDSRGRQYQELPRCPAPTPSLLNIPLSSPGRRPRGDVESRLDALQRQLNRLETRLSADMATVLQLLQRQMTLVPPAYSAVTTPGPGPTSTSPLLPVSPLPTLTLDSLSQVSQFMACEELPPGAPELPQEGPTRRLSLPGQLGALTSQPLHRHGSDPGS
Cytochrome P450 3A4, sequence (P08684 whole entry): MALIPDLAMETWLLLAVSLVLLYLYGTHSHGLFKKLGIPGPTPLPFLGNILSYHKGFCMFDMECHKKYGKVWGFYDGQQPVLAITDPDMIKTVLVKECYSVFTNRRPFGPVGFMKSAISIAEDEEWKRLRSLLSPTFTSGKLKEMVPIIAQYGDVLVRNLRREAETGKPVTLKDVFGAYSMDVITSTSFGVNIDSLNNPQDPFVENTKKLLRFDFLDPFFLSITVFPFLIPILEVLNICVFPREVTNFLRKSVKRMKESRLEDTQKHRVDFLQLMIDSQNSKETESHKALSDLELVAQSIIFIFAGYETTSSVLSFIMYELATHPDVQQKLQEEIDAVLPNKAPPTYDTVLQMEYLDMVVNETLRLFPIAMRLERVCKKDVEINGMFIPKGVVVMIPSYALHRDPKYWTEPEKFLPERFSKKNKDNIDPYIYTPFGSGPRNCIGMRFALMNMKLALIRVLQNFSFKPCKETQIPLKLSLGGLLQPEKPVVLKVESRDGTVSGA
Cytochrome P450 2C9, sequence (P11712 whole entry): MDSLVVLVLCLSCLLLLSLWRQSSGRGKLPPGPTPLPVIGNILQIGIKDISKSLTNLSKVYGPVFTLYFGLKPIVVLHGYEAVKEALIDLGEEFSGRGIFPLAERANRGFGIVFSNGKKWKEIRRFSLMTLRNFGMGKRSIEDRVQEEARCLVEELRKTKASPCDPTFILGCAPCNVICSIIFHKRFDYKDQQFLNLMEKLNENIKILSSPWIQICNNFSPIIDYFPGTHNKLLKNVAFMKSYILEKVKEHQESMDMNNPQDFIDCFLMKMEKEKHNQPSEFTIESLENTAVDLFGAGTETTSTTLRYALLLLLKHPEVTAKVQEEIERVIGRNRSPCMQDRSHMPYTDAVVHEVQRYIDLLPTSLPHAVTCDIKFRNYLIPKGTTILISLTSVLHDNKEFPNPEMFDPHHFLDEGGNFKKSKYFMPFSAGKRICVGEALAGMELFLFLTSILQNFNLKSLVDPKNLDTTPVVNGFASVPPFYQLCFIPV

Broadly, the IC50 is the point on the concentration scale where inhibition reaches its midpoint. As for `O=c1c(OC2CCCC2)c(N2CCN(S(=O)(=O)Cc3ccccn3)CC2)cnn1-c1ccccc1`, the values for the MIC in data set [1] and in data set [3] were 0.06 µg/mL (≈ 0.121 µM) and 8.4 µg/mL (≈ 16.9 µM), respectively. The same molecule had an IC50 in [2] of 1190 nM.
In the same order, the values of `O=c1c(OC2CCCC2)c(N2CCN(S(=O)(=O)Cc3cccnc3)CC2)cnn1-c1ccccc1` are 0.13 µg/mL (≈ 0.262 µM), 8.4 µg/mL (≈ 16.9 µM) and 404 nM.
Usually MIC50 stands for an inhibitory concentration at the 50% level, which refers to growth in some studies and to a panel of isolates in others. Read a high MIC50 as weaker potency. Regarding `O=c1c(OC2CCCC2)c(N2CCN(S(=O)(=O)c3ccccc3)CC2)cnn1-c1ccccc1`, the MIC in data set [1] was found to be 0.15 µg/mL (≈ 0.312 µM). This molecule gave an IC50 in [2] above 20800 nM. For the same molecule, the MIC50 in data set [3] is 0.78 µg/mL (≈ 1.62 µM).
As a reminder, the AUC(0-t) is the area under the concentration-time curve up to a stated or last time point. A lower AUC(0-t) goes with less exposure. `CC(C)S(=O)(=O)N1CCN(c2cnn(-c3ccccc3)c(=O)c2OC2CCCC2)CC1` returned an AUC(0-t) at 6 h in [4] of 1600 ng·h/mL. Further, the MIC in data set [1] was 0.2 µg/mL (≈ 0.448 µM). The same molecule gave an IC50 in [2] of 3810 nM. The MIC50 in data set [3] is 25 µg/mL (≈ 56 µM).
Turning to `CC(C)S(=O)(=O)N1CCN(c2cnn(C3CCCCC3)c(=O)c2OC2CCCC2)CC1`, the MIC is 0.78 µg/mL (≈ 1.72 µM) in data set [1] and above 50 µg/mL in [3]. Also, the half-maximal inhibitory concentration (IC50) in data set [2] is 19400 nM.
On the same counts, the results for `CC(C)S(=O)(=O)N1CCN(c2cnn(-c3cccnc3)c(=O)c2OC2CCCC2)CC1` are 1.6 µg/mL (≈ 3.57 µM), above 50 µg/mL and 13600 nM.
On the same counts, the results for `CC(C)S(=O)(=O)N1CCN(c2cnn(-c3nccs3)c(=O)c2OC2CCCC2)CC1` are 8.4 µg/mL (≈ 18.5 µM), above 20 µg/mL and above 22000 nM.
The molecule `CC(C)S(=O)(=O)N1CCN(c2cnn(-c3cccc(F)c3)c(=O)c2OC2CCCC2)CC1` displayed an AUC(0-t) at 6 h in [4] of 670 ng·h/mL. In addition, the MIC in data set [1] is 0.1 µg/mL (≈ 0.215 µM); in [3], 6.3 µg/mL (≈ 13.6 µM). The molecule also showed an IC50 in data set [2] of 2150 nM. Moreover, in data set [5], the minimal effective concentration turned out to be 1.6 µg/mL.
Take `CC(C)S(=O)(=O)N1CCN(c2cnn(-c3cccc(Cl)c3)c(=O)c2OC2CCCC2)CC1`: the AUC(0-t) at 6 h in data set [4] came out at 490 ng·h/mL. For the same molecule, the results for the MIC in data set [1] and in data set [3] were 0.1 µg/mL (≈ 0.208 µM) and 3.1 µg/mL (≈ 6.44 µM), respectively. This molecule also showed an IC50 in [2] of 1080 nM.
Regarding `CC(C)S(=O)(=O)N1CCN(c2cnn(-c3cc(F)cc(F)c3)c(=O)c2OC2CCCC2)CC1`, the MIC in data set [1] was found to be 0.4 µg/mL (≈ 0.829 µM); in data set [3] it was 6.3 µg/mL (≈ 13.1 µM). This molecule had a half-maximal inhibitory concentration (IC50) in [2] of 1280 nM.
In turn, `CC(C)S(=O)(=O)N1CCN(c2cnn(-c3cc(F)cc(Cl)c3)c(=O)c2OC2CCCC2)CC1` displayed an AUC(0-t) at 6 h in data set [4] of 490 ng·h/mL. Further, the MIC in data set [1] came out at 0.06 µg/mL (≈ 0.12 µM); in data set [3], 6.3 µg/mL (≈ 12.6 µM). The midpoint of inhibition in [2], the IC50, lay at 501 nM.
As for `CC(C)S(=O)(=O)N1CCN(c2cnn(-c3cc(Cl)cc(Cl)c3)c(=O)c2OC2CCCC2)CC1`, the results for the MIC in data set [1] and in data set [3] were 0.2 µg/mL (≈ 0.388 µM) and 3.1 µg/mL (≈ 6.01 µM), respectively. This molecule also showed an IC50 in [2] of 504 nM.
On the same counts, the results for `CC(C)S(=O)(=O)N1CCN(c2cnn(-c3cccc(O)c3)c(=O)c2OC2CCCC2)CC1` are 2.5 µg/mL (≈ 5.4 µM), above 20 µg/mL and 1950 nM.
On the same counts, the results for `CC(C)S(=O)(=O)N1CCN(c2cnn(-c3cccc(N)c3)c(=O)c2OC2CCCC2)CC1` are 25 µg/mL (≈ 54.2 µM), above 50 µg/mL and 4120 nM.
`CC(C)S(=O)(=O)N1CCN(c2cnn(-c3cccc(F)c3)c(=O)c2OC2CCC(F)(F)C2)CC1` (configuration not stated): the exposure AUC(0-t) at 6 h in data set [4] came to 470 ng·h/mL. Moreover, the MIC in [1] was found to be 0.78 µg/mL (≈ 1.56 µM); in data set [3], 6.3 µg/mL (≈ 12.6 µM). Further, in data set [2], half-maximal inhibition (IC50) was put at 2200 nM. For the same molecule, the minimal effective concentration in data set [5] worked out at 3.1 µg/mL.
For `CC(C)S(=O)(=O)N1CCN(c2cnn(-c3cc(F)cc(F)c3)c(=O)c2OC2CCC(F)(F)C2)CC1` (configuration not stated), the area under the curve AUC(0-t) at 6 h in [4] was 440 ng·h/mL. In addition, the MIC in [1] was 0.05 µg/mL (≈ 0.0964 µM); in data set [3], 12.5 µg/mL (≈ 24.1 µM). In data set [2], half-maximal inhibition (IC50) was put at 1160 nM. Besides, the minimal effective concentration in data set [5] is 3.1 µg/mL.
On the same counts, the results for `CC(C)S(=O)(=O)N1CCN(c2cnn(-c3cccc(F)c3)c(=O)c2OC2CCC(F)C2)CC1` (racemic) are 300 ng·h/mL, 0.13 µg/mL (≈ 0.269 µM), 16.7 µg/mL (≈ 34.6 µM), 870 nM and 4.2 µg/mL.
By inhibition is commonly meant the drop in the measured response relative to a control, in per cent. A low value points to a response near the control. For the molecule `CC(C)S(=O)(=O)N1CCN(c2cnn(-c3cc(F)cc(F)c3)c(=O)c2OC2CCC(F)C2)CC1` (racemic), the values for the CL in data set [6], in data set [9] and in [13] were 1 µL/min, 1.7 µL/min and 2.4 µL/min, respectively. The “inhibition (INH)” value in data set [7], in data set [12] and in [15] was “Not Active” in each case. The values for the log10cfu in [8] and in data set [14] were 4.16 and 1.3, respectively. In data set [4], this molecule gave an area under the curve AUC(0-t) at 6 h of 2100 ng·h/mL. Further, the MIC in data set [1] amounted to 0.1 µg/mL (≈ 0.2 µM); in [3] it was 6.3 µg/mL (≈ 12.6 µM). Also, inhibition in [2] was half-maximal at 1240 nM (IC50). Further, the AUC(0-t) at 8 h in [10] came out at 3500 ng·h/mL. Besides, 1 µM produced 22% inhibition in [11]. Besides, in [5], the minimal effective concentration stood at 1.6 µg/mL.
